Measurements as given in paper PMC5329948, “Caspase vinyl sulfone small molecule inhibitors prevent axonal degeneration in human neurons and reverse cognitive impairment in Caspase-6-overexpressing mice” (Molecular Neurodegeneration, 2017).

Experiments:
[1] = test system: mice hippocampi; assay: Hippocampal Casp6 substrates, synaptic and glial markers after treatment (western blot, immunohistochemistry); format: in vivo, mouse
Text: Protein extracts from HCT116 cells and human primary neurons were subjected to western blotting analyses. The 10630 (1:10 000) and GN60622 (1:10 000) neoepitope antibodies against the p20 subunit of active Casp6 (Casp6p20) and α-tubulin cleaved by Casp6 (TubΔCasp6) were generated previously in our laboratory. The β-actin clone AC-15 (1:5 000, Sigma-Aldrich, Oakville, ON, CA), Casp6 (1:1 000), Synapsin (1:5 000), full-length α-tubulin (1:1 000, Cell Signalling Technology Inc., Danvers, MA, USA), GFAP (1:3 000, Dako, Burlington, ON, CA), synaptophysin (1:5 000, Sigma, Oakville, ON, CA), and PSD95 clone K28143 (1:5 000, UC Davis/NIH NeuroMab Facility) were purchased. All antibodies were diluted in 5% non-fat dry milk. Secondary anti-mouse (1:5 000, GE Healthcare Life Sciences, Baie D’Urfe, QC, CA) and anti-rabbit antibodies (1:5 000, Dako, Burlington, ON, CA) conjugated to horseradish peroxidase were used to detect immunoreactive proteins using ECL prime western blotting detection reagent (GE Healthcare Life Sciences, Baie D’Urfe, QC, CA) and Kodak BioMax MR film (Kodak, Rochester, NY, USA). Secondary anti-mouse conjugated to alkaline phosphatase (Jackson Immunoresearch Laboratories Inc., West Grove, PA) was developed with nitro-blue tetrazolium (Thermo Fisher Scientific, Waltham, MA, USA) and 5-bromo-4-chloro-3-indolylphosphate (Thermo Fisher Scientific, Waltham, MA, USA) for chromogenic detection of proteins. The western blots were scanned with an HP scanner and the images were not manipulated except to adjust the brightness/contrast and this was done simultaneously to the entire blot. Quantification was performed with the ImageJ software (NIH, Bethesda, MD, USA).
Only males were used and littermates from each genotype (wild type (WT)/WT, WT/Cre, & knock-in (KI/)Cre) were tested together. The experimenter was blind to genotype and treatment groups. Mice were administered 20 mg/kg NWL-117 or physiological saline (0.9% NaCl) by intraperitoneal injections two times 48 h apart. […] Blood brain barrier permeability of NWL-117 caspase inhibitor: Briefly, 18–22 month old Casp6 mice were anesthetised with isoflurane, warmed with a heating blanket, and their physiological vitals (heart rate, body temperature, and respiration) monitored. The skin over the mouse’s neck was shaved, xylocaine applied, and an incision was made along the midline. Under a surgical microscope, the right carotid artery was gently separated from surrounding tissue. Two suture threads were placed at the proximal and distal ends of the carotid, and a small incision was made along the carotid wall. A micro-catheter (attached to a 1 ml syringe controlled by a micropump) was inserted and pushed to the entrance of the internal carotid artery. The catheter was secured in place using suture thread. NWL-117 (20 mg/kg) was infused via the micro-catheter using a pump set at 50 μL/min (total volume between 64 μL and 130 μL). After 5 min, blood was collected by intra-cardiac puncture, the mouse was perfused through the heart with ice cold saline for 2–3 min. The brain was removed and hippocampi were dissected and frozen on dry ice and stored. Samples were sent to the Biopharmacy platform at the University of Montreal (Quebec, Canada) for liquid chromatography and tandem mass spectrometry analysis. The integrity of the blood-brain barrier was confirmed by injecting 3% Evan’s blue solution in 20 month old Casp6 mice. […]

[2] = test system: mice; assay: One month treatment toxicity in mice (pathology report); format: in vivo, mouse; settings: one month treatment (Additional file 1)
Procedure: Casp6 transgenic mouse model: All animal procedures followed the Canadian Council on Animal Care guidelines and were approved by the McGill Animal care committees. Sixteen to 20 month old C57BL/6 J mice were bred and aged in the pathogen-free Goodman Cancer Research Centre Mouse Transgenic Facility at McGill University. Mice were housed in a temperature-controlled room at 22 °C and were kept on a 12 h light/dark cycle. Food and water were available at libitum. Casp6 overexpressing mice (KI/Cre) express Casp6p20p10 under the CAG promoter (CMV immediate early enchancer/chicken β-actin promoter fusion) in the CA1 pyramidal cell layer of the hippocampus under the control of calmodulin kinase IIa (CAMKIIa)-regulated Cre expression.
Additional file 1: Pathology report. Contains pharmacokinetic and toxicological analysis of CD-1 mice treated with NWL-117 for 28 days every 3 days. (PDF 3742 kb) Additional file 2: Figures S1-S4. Contains additional information to complement Figs. 3, 4, and 6 of the manuscript. (PDF 463 kb)

CCC(C)[C@H](NC(=O)[C@H](CCC(=O)O)NC(=O)[C@@H](NC(=O)OCc1ccccc1)C(C)C)C(=O)N[C@H](/C=C/S(C)(=O)=O)CC(=O)O (stereo partly drawn) [NWL-117]
Synapsin, synaptophysin and PSD95 hippocampal protein levels ([1]; 20 mg/kg i.p.): unchanged | TubΔCasp6 immunostaining, CA1, KI/Cre mice ([1]; 20 mg/kg i.p.): increased non-significantly | TubΔCasp6 immunostaining, CA1, control mice ([1]; 20 mg/kg i.p.): non-significantly decreased TubΔCasp6 levels threefold | GFAP levels ([1]; KI/Cre mice hippocampal extracts): did not change | p97 cleaved by Casp6 (Δp97) ([1]; KI/Cre mice, versus saline): not different | toxicity after one month treatment [2]: No obvious toxicity
